According to patent US20070275936A1, “Formulations and Treatment Methods” (priority 1998, published 2007):
Like-named read-outs stand apart in the source and are kept apart here.

How the values were obtained:
Wistar rats = assay: DNBS induced distal colitis in rats; format: in vivo; conditions: for adhesions / colonic ulceration / diarrhea: DNBS rats; for adhesions / colonic ulceration: first study, groups of 3; for diarrhea: 7-oxodehydroepiandrosterone 2 and 20 mg/mL s.c., sulfasalazine PO, AET 20 mg/kg; for animals with moderate acute inflammation: 5 of 10 in immunosteroid vehicle controls; for animals with severe chronic inflammation: 14 days after DNBS challenge, 8 of 10 in immunosteroid vehicle controls
Protocol: Groups of 3 male Wistar rats (180±20 grams) fasted for 24 hours before 2,4-dinitrobenzene sulfonic acid (DNBS) or saline challenge were used. Distal colitis was induced by intra-colonic instillation of 0.5 mL of an ethanolic solution of DNBS (30 mg in 0.5 mL of a 30% ethanol in saline solution) after which 2 mL of air was injected through the cannula to ensure that the solution remained in the colon. The volume used was 0.1 mL per injection of 2 and 20 mg/mL of 7-oxodehydroepiandrosterone in a liquid formulation, was administered by subcutaneous injection once a day for 6 days. The formulation contained […] of 7-oxodehydroepiandrosterone in a non-aqueous suspension that contained 2% benzyl alcohol w/v, 0.1% Brij 96 w/v and equal volumes of PEG 300 and propylene glycol. Concentrations of 2 mg/mL and 20 mg/mL were obtained by diluting the […] with vehicle that lacked the active substance.
The first dose was given 30 minutes after DNBS challenge. Sulfasalazine (30 mg/mL in 2% Tween 80 in distilled water) was administered orally (PO) once a day (10 mL/kg/day) for 7 days, the first two doses beginning 24 hours and 2 hours before DNBS challenge. The presence of diarrhea was recorded daily by examining the anal area. Animals were fasted for 24 hours prior to being sacrificed. Animals were sacrificed on day 7 or day 8 and their colons were removed and weighed. Before removal of the colon, signs of adhesion between the colon and other organs were recorded. Also, the presence of ulcerations was noted after weighing of each colon. The “net” change of colon-to-body weight (BW) ratio was normalized relative to saline-challenged baseline group. A 30% decrease in “net” colon-to-body weight ratio was considered significant.
A total of five studies were conducted. Data from the first study are reported in this report. The 7-oxodehydroepiandrosterone at 2 and 20 mg/mL, decreased the net colon-to-body weight ratio by 19 and by 14% relative to vehicle-treated group, respectively. […] The formula 1 compound 3β,7β,17β-trihydroxyandrost-5-ene (AET) was administered by subcutaneous injections of 2 and 20 mg/day for 5 or 6 days, with the first dose injected 30 minutes post-DNBS challenge. The AET formulation was the same as the 7-oxodehydroepiandrosterone formulation, except that AET replaced 7-oxodehydroepiandrosterone. AET decreased the net colon-to-body weight ratio by 15% and 21% relative to controls (see the table below). Animals treated with AET (20 mg/kg) had no diarrhea. […] The same formulations containing BrEA hemihydrate (100 mg/mL) or dehydroepiandrosterone (20 mg/mL) decreased the net colon-to-body weight ratio by 21 and 3%, respectively relative to controls.

Sprague Dawley rats = assay: TNBS induced distal colitis in rats; format: in vivo; conditions: day 14
Protocol: In another protocol formula 1 compounds were used in a similar animal model. Groups of 10 male Sprague Dawley rats (250-300 grams) were fasted for 24 hours before 2,4,6-trinitrobenzene sulfonic acid (TNBS) or saline challenge. This model presents a severe challenge to the animal's immune system. On Day 0, the rats were lightly anesthetized and a catheter inserted rectally into the colon such that the tip was 8 cm proximal to the anus. Distal colitis was induced by intra-colonic instillation of 0.5 mL of an ethanolic solution of TNBS (60 mg/mL ethanol 50% in water). The test substance, 7-oxodehydroepiandrosterone 20 mg/mL in vehicle or vehicle control was administered by subcutaneous injection (0.1 mL/injection) once a day for 6 days, the first dose being given 30 minutes after TNBS challenge. Sulfasalazine (30 mg/mL in 2% Tween 80 in distilled water) or vehicle control was administered orally (PO) once a day (10 mL/kg/day) for 7 days, the first two doses beginning 24 hours and 2 hours before […] challenge. Signs of diarrhea were recorded daily by examining the anal area. Animals were fasted for 24 hours prior to sacrifice on day 14 and the colon was removed and weighed. After gross observations of colonic tissues, 3 samples were taken from regions approximately 1, 3, and 8 cm proximal to the anus. If gross ulcers or inflammation were present, at least one sample was taken from the affected region. Before removal of the colon, signs of adhesion between the colon and other organs were recorded. […] Body weight, colon-to-body-weight ratio, and damage scores were assessed. Visible damage was scored on a 1-5 scale as follows: 0=No damage; 1=Localized hyperemia but no ulcers; 2=linear ulcers with no significant inflammation; 3=Linear ulcers with inflammation at one site; 4=Two or more sites of ulceration and/or inflammation; 5=Two or more major sites of ulceration and inflammation or one major site of ulceration and inflammation extending more than 1 cm along the length of the colon. […]

BALB/c mice = assay: Reversal of immunosenescence: HBsAg vaccination of aged mice; format: in vivo; conditions: for mice producing anti-HBsAg in response to secondary vaccination: groups of 8, 0.3 mg/mouse at primary vaccination; for mice with increased anti-HBsAg antibody titer following secondary vaccination: groups of 8, 3 mg/mouse at primary vaccination
Protocol: Healthy aged (20-month) or immunologically-mature (3-month) BALB/c mice were vaccinated with hepatitis B surface antigen (HBsAg) (2 μg; Recombivax-HB; Merck) and Alum (2.75 μg). The aged mice were vaccinated with the antigen and also received a single subcutaneous injection of either 0.3 mg or 3.0 mg of 3β,7β,17β-trihydroxyandrost-5-ene (AET), BrEA or 7-oxodehydroepiandrosterone, dehydroepiandrosterone or the vehicle (placebo control). The AET, BrEA hemihydrate or dehydroepiandrosterone was present in a formulation that contained 60 mg/mL of the compound suspended in 0.1% w/v carboxymethyl cellulose sodium in 0.9% saline. 7-Oxodehydroepiandrosterone was in a formulation that contained 60 mg/mL of the compound suspended in 0.1% w/v gum arabic in 0.9% saline. A concentration of 6 mg/mL was obtained by diluting the 60 mg/mL formulation with vehicle that lacked the active substance.
Blood samples were collected 14, 21 and 34 days after treatment and the sera were analyzed by ELISA to determine the concentration of HBsAg-specific IgG (total IgG). In addition, samples obtained on day 21 were analyzed to determine the concentration of HBsAg-specific IgG1 and IgG2a subclasses. The results summarized below were average values obtained with blood samples collected 21 days after vaccination of groups of 8 mice. Subcutaneous injection was performed after shaving the hair from the thighs of each mouse. The injected volume was 50 μL for compound (3.0 mg or 0.3 mg) or placebo, and for vaccine preparation. The vehicle control consisted of carboxymethylcellulose (0.5%) in saline (0.9%). Antibody titers were determined by ELISA.
Secondary antibody response. Later, 42 days after the initial exposure to HBsAg, serum samples were taken from the mice described in the previous section and these were tested for anti-HBsAg IgG. At this time-point, vaccine-specific IgG titers were either low or undetectable. Three days later (45 days after first vaccination), the mice were injected again with HBsAg in Alum, but this time, none of the mice received immunosteroid (secondary vaccination). Serum samples collected 7 days and 14 days after the second exposure to HBsAg vaccine were assayed for anti-HBsAg antibody. […] In contrast, in aged mice that had received no immunosteroid with the first HBsAg injection, low levels of anti-HBsAg were detectable, and only in 4 of the 8 mice in this group was antibody detectable. Increases in anti-HBsAg titers were seen following secondary vaccination in aged animals that had been treated with immunosteroid in conjunction with the first HBsAg exposure. The anti-HBsAg antibody titer in serum increased following secondary vaccination in all 8 mice in the groups of aged mice that were treated at primary vaccination with the higher dose (3 mg/mouse) of AET, BrEA or 7-oxodehydroepiandrosterone, or with dehydroepiandrosterone (0.3 mg/mouse). In those aged mice that had received the lower dose (0.3 mg/mouse) of AET, BrEA or 7-oxodehydroepiandrosterone at vaccination, an intermediate response was seen, with 6 of the 8 mice producing detectable anti-HBsAg in response to secondary vaccination.

[1] = system: Chloroquine sensitive T996/86 P. falciparum; assay: In vitro antimalarial testing (schizont inhibition / 3H-hypoxanthine incorporation); format: cell-based
Protocol: For in vitro antimalarial testing, micro-titer plates were used. The concentration of drugs were prepared as pMol/well according to WHO standard procedures (WHO, 1990). The test compound was dissolved in 15% DMSO in sterile RPMI-1640. Both chloroquine sensitive (e.g., WS/97) and resistant (e.g., MN/97) isolates of Plasmodium species are used.
A schizont inhibition assay was performed as follows. The micro-titer plates were predosed with various concentrations of the test compound. 50 μL of parasitised erythrocyte suspension in RPMI-1640 (0.2 mL erythrocyte+0.3 mL serum+4-5 ml RPMI-1640) were dispensed in microtiter wells that contained various concentrations of drug. Triplicate readings were made for each concentration.
A ^3H-hypoxanthine incorporation assay was performed as follows. The testing was carried out according to the procedure of Desjardins et al. 1979. After 30 hr culture at 37 degrees C., the same microtiter plates from schizont inhibition assays with another triplicate wells were pulsed with ^3H-hypoxanthine for overnight. The cell suspensions were washed twice on millipore glass fiber filter with Millipore filter apparatus. The filter discs were counted for DPM by a Beckman LS6000 β-scintillation counter. The activity of the drug was measured by plotting DPM against concentration of drug.

P. berghei HP15 ANKA = assay: Four-day in vivo suppressive test in TO mice; set-up: species or system Plasmodium berghei; conditions: day 5 blood films, 5 equals control
Protocol: The 4-day suppressive test has been widely used and it can be performed within a 1 week period. The test consists of the inoculation of parasitised erythrocytes on the first day of the experiment (D0), followed by an injection of the test compound, which is also administered on the 2nd, 3rd and 4th days of the protocol. On the 5th day, blood films are taken and antimalarial activity is assessed either by calculating parasitemia, or by scoring parasite numbers on a predetermined scale (i.e., 1-5).
The protocol is summarized as follows. Five female TO mice were used per test group. P. berghei HP15 ANKA parasites were collected by cardiac puncture using a heparinised syringe from a donor mouse having a 30+% parasitaemia. The blood was diluted with diluting agent (50% HIFCS+50% sterile PBS) to a final concentration of 1% parasitaemia or 1×10^7 infected erythrocytes per 0.2 mL of the infecting suspension. […] The steroid formulations were administered intraperitoneally 2 hours after parasite inoculation. The compounds were administered once a day starting on Do, and continued on the following three days. Blood films were made from tail blood on the day after the last dosing of compound and the blood was fixed with 100% methanol and stained with 10% Giemsa. Parasitaemias were scored on a scale of 0-5, where 5 is equal to the control.
An inoculum of 1% parasitaemia […], 0.2 mL per mouse (female strain TO mice), was delivered by intravenous injection. Drug administration commenced 2 hours after inoculation on Day 1 and continued for 3 days.

Plasmodium berghei = assay: Lewis rat in vivo parasitemia study; conditions: Lewis rats, chloroquine 40 mg/kg i.v. days 0-3
[2] = T996/86 P. falciparum in vitro, read-out: IC50

## C[C@]12CC[C@H](O)CC1=CC(=O)[C@@H]1[C@@H]2CC[C@]2(C)C(=O)CC[C@@H]12 [7-oxodehydroepiandrosterone]
Wistar rats
  adhesions: Adhesions were absent in all three tested animals
  colonic ulceration: 1/3
  diarrhea: All animals had diarrhea
Sprague Dawley rats
  histopathology: inflammation / lesion frequency and severity versus controls: exacerbated the inflammation
BALB/c mice
  mice producing anti-HBsAg in response to secondary vaccination: 6 mice
  mice with increased anti-HBsAg antibody titer following secondary vaccination: 8 mice

## C[C@]12CC[C@H]3[C@@H]([C@@H](O)C=C4C[C@@H](O)CC[C@@]43C)[C@@H]1CC[C@@H]2O [AET, 3β,7β,17β-trihydroxyandrost-5-ene]
Wistar rats; 7 days after DNBS challenge
  animals with moderate acute inflammation: 6 animals
Wistar rats
  animals with severe chronic inflammation: 3 animals
  adhesions: Adhesion was absent
  diarrhea: no diarrhea
Wistar rats; 14 days after challenge, treatment began the same day as challenge
  animals with ulcers: 1 animal
BALB/c mice
  mice producing anti-HBsAg in response to secondary vaccination: 6 mice
  mice with increased anti-HBsAg antibody titer following secondary vaccination: 8 mice

## CCN(CC)CCCC(C)Nc1ccnc2cc(Cl)ccc12 (centres unmarked) [Chloroquine, reference compound]
[1]; Plasmodium falciparum, T996
  IC50: 0.009 µM
  inhibition at 0.00625 µM: 27.2%
  inhibition at 0.0125 µM: 86.8%
  inhibition at 0.025 µM: 94.5%
  inhibition at 0.05 µM: 97.3%
  inhibition at 0.1 µM: 94.6%
  inhibition at 0.2 µM: 95.9%
P. berghei HP15 ANKA; 3 mg/kg × 4 days i.p.
  Parasitaemia Score (0-5): 1
Plasmodium berghei; Day 4, saline control 16%
  % RBC parasitemia: 10%
Plasmodium berghei; Day 11, saline control 36%
  % RBC parasitemia: 16%

## O=C(O)c1cc(/N=N/c2ccc(S(=O)(=O)Nc3ccccn3)cc2)ccc1O [Sulfasalazine]
Wistar rats; 7 days after DNBS challenge, 3 of 10 in immunosteroid vehicle controls
  animals with severe acute inflammation: 3 animals
Wistar rats; 7 days after DNBS challenge
  animals with moderate acute inflammation: 6 animals
Wistar rats
  animals with severe chronic inflammation: 2 animals
  adhesions: no animals exhibited adhesions or colonic ulceration
  colonic ulceration: no animals exhibited adhesions or colonic ulceration
  diarrhea: all animals treated with Sulfazalazine had diarrhea

## Etianic Acid Methyl Ester
[1]; 0.938 μM
  % inhibition: 47.1%
[1]; 1.875 μM
  % inhibition: 43.4%
[1]; 3.25 μM
  % inhibition: 41.4%
[1]; 7.5 μM
  % inhibition: 45.3%
[1]; 15 μM
  % inhibition: 47.4%
[1]; 30 μM
  % inhibition: 61.5%
[1]; [2]
  IC50: 17.5 µM

## Etienic Acid
P. berghei HP15 ANKA; 100 mg/kg × 4 days i.p.
  Parasitaemia Score (0-5): 2

## Etienic Acid Methyl Ester
[1]; 0.938 μM
  % inhibition: 43.3%
[1]; 1.875 μM
  % inhibition: 41%
[1]; 3.25 μM
  % inhibition: 46%
[1]; 7.5 μM
  % inhibition: 40.9%
[1]; 15 μM
  % inhibition: 45.7%
[1]; 30 μM
  % inhibition: 60%
[1]; [2]
  IC50: 19.5 µM
